Literature values in patent US11670410B1, “Systems and methods to automatically administer a psychoactive substance to an airway of a user based on a detected event or condition” (priority 2022, dated 2023).

What was measured:
[1] = nose-to-brain device, protocol dose 1 mg
[2] = galantamine consumed orally
[3] = inhaled after vaporization; protocol dose 10 mcg/Kg
[4] = @ 5 min., protocol dose 1.0 mg

COc1ccc2c3c1O[C@H]1C[C@@H](O)C=C[C@@]31CCN(C)C2 [Galantamine, galantamine]
PK-Intranasal Tmax [1]: 0.5 to 0.75 h | Tmax [2]: ~1.5 h

COC(=O)[C@@H]1C[C@H](OC(C)=O)C(=O)[C@H]2[C@@]1(C)CC[C@H]1C(=O)O[C@H](c3ccoc3)C[C@]21C [Salvinorin A, salvinorin A]
PK-Inhaled Tmax [3]: Tmax = 2 min.

CC[C@H](C)[C@@H]1NC(=O)[C@H](Cc2ccc(O)cc2)NC(=O)[C@@H](N)CSSC[C@@H](C(=O)N2CCC[C@H]2C(=O)N[C@@H](CC(C)C)C(=O)NCC(N)=O)NC(=O)[C@H](CC(N)=O)NC(=O)[C@H](CCC(N)=O)NC1=O [Oxytocin, oxytocin]
PK-Intranasal olfactory bulb concentration [4]: > 0 @ 5 min.
